Tested on: fusion protein ACP-FRB
Experiment: in vitro protein trimer formation with ACP-FRB, ACP synthase, SDS-PAGE
Format: biochemical
Conditions: FRB protein fused to ACP tag, ACP synthase enzyme, overnight incubation at 4° C., coomassie stained
Procedure: A solution of maleimide derivative (34) (1.4 mg, 1 eq, 1.3 μmol) in DMF (0.7 mL) is added to a solution of CoA-SH (3.5 mg, 3.3 eq, 4.3 μmol) in Tris buffer (pH 7.5, 100 μL). The reaction mixture is shaken overnight at 31° C. The solvent is removed under vacuum and the crude mixture is purified via preparative HPLC. The structural ability of compound (35) to trigger the formation of a protein trimer is confirmed by in vitro experiments using the fusion protein ACP-FRB. 12.5 μL of a 48.5 μM solution of FRB protein fused to the ACP tag (Covalys) is mixed with 0.5 μL of a 0.2 mM solution of compound (35), 2.5 μL of a solution of [500 mM Tris-HCl pH 7.5; 1500 mM NaCl; 100 mM MgCl2], 9.5 μL of double distilled water and 0.5 μl of ACP synthase enzyme (available from Covalys). Following overnight incubation at 4° C., 5 μL of a solution of 100 mM Tris-HCl pH 6.8; 2% SDS; 35% glycerol; 10 mM EDTA; 20 mM DTT is added. The mixture is boiled for 5 min at 95° C. After cooling to rt, 30 μL of this solution is loaded on a 4-20% linear gradient SDS-PAGE gel. After electrophoresis, the proteins are coomassie stained in gel to visualize protein trimer.

## CCN(CC)c1ccc2nc3c4cc(OCC(=O)NC(COCCC(=O)NCCN5C(=O)CC(SCCNC(=O)CCNC(=O)[C@H](O)C(C)(C)COP(=O)([O-])OP(=O)([O-])OC[C@H]6O[C@@H](n7cnc8c(N)ncnc87)C(O)C6OP(=O)(O)O)C5=O)(COCCC(=O)NCCN5C(=O)CC(SCCNC(=O)CCNC(=O)[C@H](O)C(C)(C)COP(=O)([O-])OP(=O)([O-])OC[C@H]6O[C@@H](n7cnc8c(N)ncnc87)C(O)C6OP(=O)(O)O)C5=O)COCCC(=O)NCCN5C(=O)CC(SCCNC(=O)CCNC(=O)[C@H](O)C(C)(C)COP(=O)([O-])OP(=O)([O-])OC[C@H]6O[C@@H](n7cnc8c(N)ncnc87)C(O)C6OP(=O)(O)O)C5=O)ccc4c(=O)cc-3oc2c1.[Na+].[Na+].[Na+].[Na+].[Na+].[Na+] (stereo partly shown) [Compound 35, N-Tris-{[2-(2-(2-(CoA-S)-succinimido)ethylaminocarbonyl)ethoxy]-methyl}methyl nile red-oxyacetamide]
  structural ability to trigger the formation of a protein trimer: confirmed

Reference: patent US20110014216A1, “Drug Transfer Based on Coenzyme A and Acyl Carrier Protein” (COVALYS B[…], priority 2007, published 2011)
